Assay results from US11931340B2, “Use of sublingual dexmedetomidine for the treatment of agitation” (BioXcel Therapeutics, Inc., priority 2016, dated 2024).
Entries after “also recorded” stand apart in the source; their conditions may differ. Counter-ions that a name gives are not always drawn. Like-named read-outs stand apart in the source and are kept apart here.

Columns and labels:
[1] = rat, in vivo
Method: Objective: To estimate Dexmedetomidine levels in rat plasma samples obtained after dosing animals via intravenous and sublingual routes at doses of 0.5, 1, 1.5 and 3 μg/kg.
Blood was collected under mild isoflurane anesthesia from the retro-orbital plexus at 0, 5, 15, 30, 60 and 120 minutes post dosing. Plasma was separated and stored at −80° C. until Dexmedetomidine concentration was analyzed.
Analytical Methods: Samples were analysed by using Agilent 1290 Infinity II HPLC system coupled to AB Sciex Triple Quad instrument (API-5000). Chromatographic separation was done using Agilent Zorbax Eclipse plus C18 column (50*2.1 mm, 1.8 μm) in gradient mode. The mobile phase consisted of 10 mM Ammonium Formate with pH 3.5 (Mobile phase A) and 100% Acetonitrile (Mobile phase B). The column temperature was 40° C. and flow rate was 0.35 mL/min. The MS instrument was operated in the positive mode (ESI+). For analysis, 2 μL of sample was injected into the LC-MS/MS instrument. Auto sampler temperature was 7° C.
WCX SPE 96 well plate was used for sample preparation. 50 μl of plasma sample was used for extraction. Along with study samples, one set of linearity and two sets of quality controls (QC) were also processed.
Sample pretreatment: To 50 μl of plasma, 10 μl of tolbutamide working solution was added (Tolbutamide 250 ng/ml). After mixing, […], of buffer solution (10 mM Ammonium Formate pH 3.5) was added. Contents were vortex mixed and loaded to preconditioned SPE plate.
After placing the cartridges in the negative pressure SPE unit, they were conditioned by passing 200 μl of 100% methanol followed by 200 μl of water. The pretreated plasma samples were then loaded to the pre-conditioned cartridges.
After loading pretreated plasma samples, cartridges were washed with 100 μl of 0.1% ammonia solution. Finally, bound analyte was eluted with 50 μl of 0.1% formic acid in acetonitrile. This step was repeated twice for complete elution. Final eluent volume was 100 μL. To 100 μL of eluent, 50 μL of 10 mM ammonium formate (pH 3.5) was added samples were vortex mixed and transferred to a 96-well HPLC sample plate (Agilent) and submitted for LC-MS/MS analysis. For LC-MS/MS analysis, 2 μL of sample was injected. Calibration standards and QCs were processed the same way as done for study samples.
The calibration curve was fitted by linear regression. The concentrations in the QC and test samples (pg/mL) were obtained from the Analyst software based on the calibration curve. […] 2) The correlation coefficient (r) of the calibration curve must be greater than or equal to 0.99. 3) At least two-thirds (4 out of 6) QC samples must be within ±20% relative error (accuracy)

[2] = tested on: rat ‘resident-intruder’ model of agitation or aggression; experiment: Rat resident-intruder model of agitation or aggression; assay type: in vivo; settings: for sublingual vs intravenous route: duration of the behavioral indices of aggression and agitation: doses of 1 and 1.5 μg/kg, student t-test
Excerpt: The resident-intruder model is an established preclinical model of aggression and agitation, and allows spontaneous and natural expression of both offensive aggression/agitation and defensive behavior in laboratory rodents in a semi natural laboratory setting.
Animals: 12-13 week old male Wistar rats weighing 380-400 g were used as resident males. 7-8 weeks old male rats weighing 280-300 g were used as the “intruder”. Resident rats were housed with female rats for 8 days to establish territoriality. The intruder rats were housed in groups of 3 with other male rats of similar age/body weight. All animals were maintained in a controlled environment with 22±3° C. temperature, 50±20% humidity, a light/dark cycle of 12 hours each and 15-20 fresh air changes per hour and had access to food and water ad-libitum. All animal experiments were conducted in accordance with the guidelines of the Committee for the Purpose of Control and Supervision of Experiments on Animals (CPCSEA), Government of India the Association for Assessment and Accreditation of Laboratory Animal Care international (AAALAC).
Dilutions were prepared fresh every day prior to dosing using 0.9% normal saline from the formulation 4 for the entire study.
Experimental Procedure: Following acclimatization for a period of 3-5 days, each resident male rat was housed with a female rat for 8 days. On day 8, basal aggression in the resident males was tested by exposing them to an “intruder rat” for 10 minutes. […] These animals were then randomized using body weight stratification method. […] Animals were housed with the female rat for an additional day. On day 9, the resident animal was paired with intruder animal of an appropriate bodyweight such that the body weight of the resident was always higher than the intruder. This was to facilitate dominant, aggressive behavior in the resident animals. After randomization, animals were assigned a permanent number. Cages were identified by cage cards indicating the study number, study code, group number, sex, dose, cage number and animal number details.
For sublingual dosing, the rats were held in one hand and using a blunt spatula the tongue was moved to one side of the mouth. […] Diazepam was used as a reference compound and was dosed intraperitoneally. Vehicle controls were treated with 0.9% saline administered sublingually or intravenously.
The behavior of the resident rat was recorded using an overhead video camera for 15 minutes and offline behavioral analysis was done using the Noldus Ethovision XT software. To distinguish the resident rat from the intruder rat in the video recording, the intruder rat was marked with non-toxic paint.
Statistical Analysis: Statistical analysis was performed using validated statistical software (GraphPad Prism 6). Data is represented as Mean±SEM. One-way ANOVA (analysis of variance) followed by “Dunnett's Multiple Comparison Test” at 95% confidence interval was applied for comparison of the relevant groups. p<0.05 was considered significant.

Cc1cccc([C@H](C)c2cnc[nH]2)c1C [Dexmedetomidine hydrochloride, (S)-4-[1-(2,3-Dimethylphenyl)ethyl]-3H-imidazole]
Plasma concentrations between 15 to 30 min [1]: 43±13.5 to 90±12.1
effect of dose on plasma concentrations [1]: dose-related effect on plasma concentrations
plasma concentrations between 15 to 30 min [1]: 27±7.1-114±1.7
effect of dose on plasma concentrations ([1]; iv): dose-dependent effect on plasma concentrations
doses that effectively reduced the behavioral indices of aggression and agitation without majorly impacting the neutral behaviors ([2]; administered sublingually or intravenously, doses used 0.5-3 μg/kg): 1 to 1.5 µg/kg
various indices of agitation and aggression ([2]; conclusion, rat resident intruder model): effectively reduces various indices of agitation and aggression
sublingual vs intravenous route: duration of the behavioral indices of aggression and agitation [2]: correlates with intravenously administered Dexmedetomidine hydrochloride
sublingual vs intravenous route: duration of the behavioral indices of aggression and agitation ([2]; listed as dexmedetomidine hydrochloride): No significant differences (i.e. similar effect via sublingual
latency to attack the intruder rat, significance vs vehicle controls ([2]; intravenous, 3 μg/kg, FIG. 2B): significant compared to vehicle controls
neutral behavior: immobile/quiet time ([2]; intravenous, 3 μg/kg, FIG. 3F): significantly increased the immobile/quiet time
neutral behaviors: grooming and exploration compared to vehicle controls ([2]; intravenous, 0.5-3 μg/kg, except at a dose of 3 μg/kg): did not significantly affect grooming and exploration
indices of aggressive and agitated behaviors ([2]; intravenous, 0.5-3 μg/kg, FIG. 1C, 1D): reduced all the indices of aggressive and agitated behaviors
anogenital sniffing, biting and attacking compared to vehicle controls ([2]; intravenous, doses above 0.5 μg/kg, FIG. 1C, 1D): significant reduction
latency to attack the intruder rat compared to the vehicle control group ([2]; prior treatment, dose related manner, route not stated): significant increase in the latency to attack the intruder rat
neutral behavior: exploration compared to vehicle controls ([2]; sublingual, 1.5 μg/kg & 3 μg/kg, FIGS. 3A and 3B): reduction in exploration
frequency and duration of aggressive and agitated behaviors (anogenital sniffing, chasing, biting, attacking) ([2]; sublingual, 0.5-3 μg/kg, 15 minutes prior to testing, FIG. 1A, 1B): reduced the frequency and duration of these behaviors in a dose related manner; also recorded: dose related reduction
latency to attack the intruder rat ([2]; sublingual, 0.5-3 μg/kg, dose related, FIG. 2A): increase in the latency to attack the intruder rat
neutral behaviors: grooming and exploration compared to vehicle controls ([2]; sublingual, 0.5-3 μg/kg, except exploration at 1.5 and 3 μg/kg, FIGS. 3A and 3B): No significant changes
chasing and attacking compared to vehicle control group ([2]; sublingual, 0.5-3 μg/kg, FIG. 1A, 1B): Significant reduction
neutral behavior: immobile/quiet time compared to vehicle controls ([2]; sublingual, 0.5-3 μg/kg, FIG. 3C): no significant effect
neutral behavior of animals ([2]; sublingually administered): No changes were observed

CN1C(=O)CN=C(c2ccccc2)c2cc(Cl)ccc21 [Diazepam]
indices of aggressive and agitated behaviors ([2]; 3 mg/kg, i.p., FIG. 1A-1D): significant reduction in all the indices of aggressive and agitated behaviors
attacking behavior / latency to attack ([2]; 3 mg/kg, i.p., FIGS. 2A and 2B): complete lack of attacking behavior
frequency and duration of neutral behaviors ([2]; 3 mg/kg, ip): significantly reduced the frequency and duration of all neutral behaviors
